Experimental data reported in ChEMBL document CHEMBL1201862, “PubChem BioAssay data set” (2004).
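Values below derive from 48-hour exposures of cells grown in 96-well plates, with endpoints linearly interpolated between the two concentrations bracketing the appropriate inhibition level. Abbreviation: GI50, concentration required for 50% inhibition of growth.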 Active and inactive are the calls of the source. Cut-off read from the data, not from the text of the source: active = GI50 up to about 1.1 µM and inactive = higher.

Columns and labels:
Assay in all cases: NCI anticancer screen, dose series, 48 h
A498 = system: A498
U-251 = system: U-251
HL-60 = system: HL-60
MDA-N = system: MDA-N
UACC-257 = system: UACC-257
Malme-3M = system: Malme-3M
SK-OV-3 = system: SK-OV-3
EKVX = system: EKVX
SF-539 = system: SF-539
SF-268 = system: SF-268
HCT-15 = system: HCT-15
SR = system: SR
SW-620 = system: SW-620
HCC 2998 = system: HCC 2998
KM12 = system: KM12
LOX IMVI = system: LOX IMVI
NCI-H23 = system: NCI-H23
MDA-MB-435 = system: MDA-MB-435
SN12C = system: SN12C
HT-29 = system: HT-29

Measured: GI50

COc1ccc(OC)c2c1C(=O)C(Cl)=C(Cl)C2=O
inactive: A498 20.3 µM | U-251 18 µM | HL-60 44.5 µM | MDA-N 2.08 µM | UACC-257 2.19 µM | Malme-3M 2.25 µM | SK-OV-3 28.4 µM | EKVX 8.3 µM | SF-539 4.72 µM | SF-268 13.5 µM | SR 1.16 µM | SW-620 1.81 µM | HCC 2998 17.3 µM | KM12 17.3 µM | LOX IMVI 2.07 µM | NCI-H23 6.37 µM | MDA-MB-435 2.31 µM | SN12C 10.7 µM | HT-29 4.18 µM
3.3 µM: HCT-15

CCNc1nc2c(ncn2C2CC(O)C(COP(=O)(O)O)O2)c(=O)[nH]1 (stereo not given)
> 100 µM: HCT-15
inactive: A498 > 100 µM | U-251 > 100 µM | HL-60 > 100 µM | MDA-N > 100 µM | UACC-257 > 100 µM | Malme-3M > 100 µM | SK-OV-3 > 100 µM | EKVX > 100 µM | SF-539 > 100 µM | SF-268 > 100 µM | SR 86.3 µM | SW-620 > 100 µM | HCC 2998 > 100 µM | KM12 > 100 µM | LOX IMVI > 100 µM | NCI-H23 > 100 µM | MDA-MB-435 > 100 µM | SN12C > 100 µM | HT-29 > 100 µM

CC(C)(C)[C@H]1CCC2(OCCO2)[C@](O)(CCCO)C1
inactive: A498 > 100 µM | U-251 > 100 µM | HL-60 > 100 µM | MDA-N > 100 µM | UACC-257 > 100 µM | Malme-3M > 100 µM | SK-OV-3 > 100 µM | EKVX > 100 µM | SF-539 > 100 µM | SF-268 > 100 µM | SR > 100 µM | SW-620 > 100 µM | HCC 2998 > 100 µM | KM12 > 100 µM | LOX IMVI > 100 µM | NCI-H23 > 100 µM | MDA-MB-435 > 100 µM | SN12C > 100 µM | HT-29 > 100 µM
> 100 µM: HCT-15

CSC(=S)N/N=C/c1ccccc1
inactive: A498 > 100 µM | U-251 52.6 µM | HL-60 36 µM | MDA-N 41.9 µM | UACC-257 > 100 µM | Malme-3M 36.5 µM | SK-OV-3 > 100 µM | EKVX 24.4 µM | SF-539 56.6 µM | SF-268 40.1 µM | SR 40.8 µM | SW-620 54.8 µM | HCC 2998 > 100 µM | KM12 65.6 µM | LOX IMVI 45.1 µM | NCI-H23 33.5 µM | MDA-MB-435 47.4 µM | SN12C 50.2 µM | HT-29 33 µM
34.4 µM: HCT-15

O=C1OC(=O)C2C1C(c1ccccc1[N+](=O)[O-])C=C(c1ccco1)N2c1ccncc1 (stereo not given)
active: SR 0.679 µM
inactive: A498 12.2 µM | U-251 3.94 µM | HL-60 1.77 µM | MDA-N 4.52 µM | UACC-257 2.08 µM | Malme-3M 25.1 µM | SK-OV-3 17.6 µM | EKVX 15.2 µM | SF-539 4.65 µM | SF-268 10.3 µM | SW-620 6.15 µM | HCC 2998 1.86 µM | KM12 1.98 µM | LOX IMVI 1.87 µM | NCI-H23 11.3 µM | MDA-MB-435 8.39 µM | SN12C 8.95 µM | HT-29 2.57 µM
2.92 µM: HCT-15

COCc1cc2c(s1)C(=O)C1=C(C2=O)C2(C=C(Br)C(=O)C(Br)=C2)CCN1
3.13 µM: HCT-15
active: Malme-3M 0.946 µM
inactive: A498 15.7 µM | U-251 11.4 µM | HL-60 2.36 µM | MDA-N 1.73 µM | UACC-257 1.55 µM | SK-OV-3 17 µM | EKVX 11.7 µM | SF-539 4.65 µM | SF-268 4.86 µM | SR 1.49 µM | SW-620 3.21 µM | HCC 2998 11.1 µM | KM12 4.85 µM | LOX IMVI 2.19 µM | NCI-H23 2.38 µM | MDA-MB-435 1.58 µM | SN12C 8.15 µM | HT-29 3.09 µM

Clc1nc(Cl)c(Cl)c(Cl)n1
inactive: A498 19.4 µM | U-251 16.7 µM | HL-60 13.5 µM | MDA-N 19.1 µM | UACC-257 16.3 µM | Malme-3M 16 µM | SK-OV-3 16.6 µM | EKVX 32.1 µM | SF-539 23 µM | SF-268 17.2 µM | SR 5.96 µM | SW-620 6.85 µM | HCC 2998 18.7 µM | KM12 13.6 µM | LOX IMVI 11.3 µM | NCI-H23 18.5 µM | MDA-MB-435 21.8 µM | SN12C 20.6 µM | HT-29 20.7 µM
19.1 µM: HCT-15

CCOC(=O)C12CC(C)=C(C)CC1CCCc1ccccc12 (stereo not given)
inactive: A498 23 µM | U-251 18.4 µM | HL-60 11.2 µM | MDA-N 26 µM | UACC-257 17.6 µM | Malme-3M 23 µM | SK-OV-3 32 µM | EKVX 21.1 µM | SF-539 28.2 µM | SF-268 38.9 µM | SR 23.8 µM | SW-620 20.8 µM | HCC 2998 14.2 µM | KM12 29.6 µM | LOX IMVI 17.1 µM | NCI-H23 28.4 µM | MDA-MB-435 27.2 µM | SN12C 23.4 µM | HT-29 16.9 µM
22.3 µM: HCT-15

COC(=O)c1c2c(cc3c1CC1(Cc4cc5c(cc4C1=O)CCC5)C3)CCC2 (stereo not given)
inactive: A498 34.4 µM | U-251 83.9 µM | HL-60 > 100 µM | MDA-N 20.4 µM | UACC-257 17.5 µM | Malme-3M 32.9 µM | SK-OV-3 21.9 µM | EKVX 56.1 µM | SF-539 97.7 µM | SF-268 85.9 µM | SR > 10 µM | SW-620 20.8 µM | HCC 2998 63 µM | KM12 38.7 µM | LOX IMVI 7.18 µM | NCI-H23 40.7 µM | MDA-MB-435 28.1 µM | SN12C > 100 µM | HT-29 37.4 µM
42.7 µM: HCT-15

Nn1c(Nc2ccc(S(N)(=O)=O)cc2)nnc(/C=C/c2c(O)ccc3ccccc23)c1=O
inactive: A498 26.7 µM | U-251 39.9 µM | HL-60 7.74 µM | MDA-N 16.3 µM | UACC-257 27.5 µM | Malme-3M 15.7 µM | SK-OV-3 24.2 µM | EKVX 13.3 µM | SF-539 35.7 µM | SF-268 42.1 µM | SR 8.77 µM | SW-620 16.4 µM | HCC 2998 18.8 µM | KM12 19.6 µM | LOX IMVI 12.9 µM | NCI-H23 4.07 µM | MDA-MB-435 20.4 µM | SN12C 11.6 µM | HT-29 19.9 µM
12.8 µM: HCT-15
